Laboratory results reported in US20090264355A1, “METHODS TO TREAT ALZHEIMER'S DISEASE OR OTHER DISORDERS MEDIATED BY AMYLOID-BETA ACCUMULATION IN A SUBJECT” (WASHINGTON UNIVERSITY IN ST. LOUIS, priority 2005, published 2009).

What was measured:
Pgp [1] = assay: [99mTc]Sestamibi transport and biodistribution; assay type: in vivo, mice; details: for brain content of the tracer: five minutes after intravenous bolus injection (2 μCi)
Method: The radiopharmaceutical [^99mTc]Sestamibi (Bristol-Myers Squibb Co.) was prepared from a one-step commercial kit formulation by addition of [^99mTc]TcO4^− according to the manufacturer's recommendations (25). […] Data are expressed as percent injected dose per gram tissue [(μCi [^99mTc]Sestamibi in tissue) (μCi injected [^99mTc]Sestamibi)^−1(g tissue)^−1×100] and are reported as mean±SEM (n=3-4) or ±range (n=2).
APPsw^+/− mice were bred to mdr1a/b^−/− animals to produce littermate mice that were positive for the APPsw transgene and either Pgp-null (APPsw^+/−, mdr1a/b^−/−) or Pgp wild type (APPsw^+/−, mdr1a/b^+/+). […] Normally, [^99mTc]Sestamibi is readily transported out of the brain by Pgp.

Pgp [2] = target: T1, Pgp (Mus musculus, UniProt P21447); assay: ISF Aβ in vivo microdialysis after acute pharmacologic inhibition of Pgp; design: species or system APPsw mice; details: 80 mg/kg intravenous
T1 construct: from tissue; host or cells: brain (blood-brain barrier) of living 3 month old APPsw+/- (Tg2576) mice
Method: In vivo microdialysis to assess brain ISF Aβ1-x in the hippocampus of awake, freely moving 3 month old APPsw^+/− mice was performed exactly as described (Cirrito, J. R., et al. 2003. J. Neurosci. 23:8844-8853; DeMattos, R. B., et al. 2004. Neuron. 41:193-202). Aβ1-x represents all Aβ peptides beginning at amino acid 1 of the N-terminus with the C-terminus being variable but predominantly either ending at position 40 or 42. An initial 4-6 hour recovery period elapsed after guide implantation and probe insertion to allow for tissue recovery, followed by collection of microdialysis samples for 5 hours at one-hour intervals at a flow rate of 1.5 μl/min to establish basal level of ISF Aβ. […] Concentrations of ISF Aβ1-x for each mouse were expressed as the percentage of basal level for each mouse (mean of 5 hours prior to treatment).
Acute inhibition of Pgp activity was assessed using APPsw mice (also called Tg2576). […] Using in vivo microdialysis in awake, freely moving mice (Cirrito, J. R., et al. 2003. J. Neurosci. 23:8844-8853; DeMattos, R. B., et al. 2004. Neuron. 41:193-202), a basal concentration of ISF Aβ was determined over 5 hours. Mice were then treated with either vehicle or XR9576 and ISF Aβ levels were assessed for an additional 10 hours (FIG. 2A). […]

LRP1 = LRP1 expression in cerebral capillaries by Western blot after acute inhibition of Pgp; assay type: in vivo, APPsw mice; details: ten hours after treatment, 80 mg/kg intravenous
Method: Hippocampal tissue from 12 month old APPsw, Pgp-wild type and APPsw, Pgp-null littermates was homogenized in 150 mM NaCl, 50 mM Tris pH 7.4, 0.5% deoxycholic acid, 0.1% SDS, 1% Triton X-100, 2.5 mM EDTA, and protease inhibitors. Western blotting for MRP1, LRP1, and RAGE were performed using 3-8% NuPAGE Tris-Acetate gels (Invitrogen) with thirty micrograms of protein loaded per lane. Cerebral microvessels from 2-3 month old PGP-wildtype (FVB wild type) and Pgp-null mice were isolated as described (Zlokovic, B. V., et al. 1993. J. Biol. Chem. 268:8019-8025.). […] Bands were detected with Lumigen-TMA6 (Amersham Biosciences) and captured digitally using the Kodak ImageStation 440CF. The relative absorbance of each band was detected by densitometry and normalized to protein loaded in each lane. […]
Acute inhibition of Pgp activity was assessed using APPsw mice (also called Tg2576). […] Using in vivo microdialysis in awake, freely moving mice (Cirrito, J. R., et al. 2003. J. Neurosci. 23:8844-8853; DeMattos, R. B., et al. 2004. Neuron. 41:193-202), a basal concentration of ISF Aβ was determined over 5 hours. Mice were then treated with either vehicle or XR9576 and ISF Aβ levels were assessed for an additional 10 hours (FIG. 2A). […] Ten hours after treatment with either vehicle or XR9576, cerebral microvessels were also isolated and assessed for levels of LRP1 by Western blot.

Pgp [3] = assay: BBB transport: clearance of radiotracers from the brain after intracerebral microinjection; details: both groups (Pgp-wild type and Pgp-null); 30 minutes; co-injected with [125I]Aβ42
Method: Transport of human [^125I]Aβ40 or [^125I]Aβ42 across the BBB and the associated calculations were performed as described (DeMattos, R. B., et al. 2002. Science. 295:2264-2267; Zlokovic, B. V., et al. 2000. Nat. Med. 6:718-719.). Briefly, a guide cannula was implanted stereotaxically into the right caudate-putamen of anesthetized mice at coordinates 0.9 mm anterior to bregma, 1.9 mm lateral, and 2.9 mm below the dura. Animals were allowed to recover after surgery prior to radiotracer studies. […] Twelve nanomoles of [^14C]inulin and either [^125I]Aβ40 or [^125I]Aβ42 was co-injected in a volume of 0.5 μl over 5 minutes using an ultra micropump (World Precision Instruments). The specific activities of peptide were in the range of 80-120 μCi/μg. The percentage of radioactivity remaining in the brain after microinjection was determined as % recovery in brain=100×(Nb/Ni), where Nb is the radioactivity remaining in the brain at the end of the experiment and Ni is the radioactivity microinjected into brain ISF, i.e., the disintegrations per minute for [^14C]inulin and the counts per minute for tricholoracetic acid-precipitable [^125I]radioactivity (intact Aβ). The percentage of Aβ cleared through the BBB was calculated as [(1−Nb(Aβ)/Ni(Aβ))−(1−Nb(inulin)/Ni(inulin))]×100, using a standard time of 30 min. […]

T1 sequence (P21447 whole entry): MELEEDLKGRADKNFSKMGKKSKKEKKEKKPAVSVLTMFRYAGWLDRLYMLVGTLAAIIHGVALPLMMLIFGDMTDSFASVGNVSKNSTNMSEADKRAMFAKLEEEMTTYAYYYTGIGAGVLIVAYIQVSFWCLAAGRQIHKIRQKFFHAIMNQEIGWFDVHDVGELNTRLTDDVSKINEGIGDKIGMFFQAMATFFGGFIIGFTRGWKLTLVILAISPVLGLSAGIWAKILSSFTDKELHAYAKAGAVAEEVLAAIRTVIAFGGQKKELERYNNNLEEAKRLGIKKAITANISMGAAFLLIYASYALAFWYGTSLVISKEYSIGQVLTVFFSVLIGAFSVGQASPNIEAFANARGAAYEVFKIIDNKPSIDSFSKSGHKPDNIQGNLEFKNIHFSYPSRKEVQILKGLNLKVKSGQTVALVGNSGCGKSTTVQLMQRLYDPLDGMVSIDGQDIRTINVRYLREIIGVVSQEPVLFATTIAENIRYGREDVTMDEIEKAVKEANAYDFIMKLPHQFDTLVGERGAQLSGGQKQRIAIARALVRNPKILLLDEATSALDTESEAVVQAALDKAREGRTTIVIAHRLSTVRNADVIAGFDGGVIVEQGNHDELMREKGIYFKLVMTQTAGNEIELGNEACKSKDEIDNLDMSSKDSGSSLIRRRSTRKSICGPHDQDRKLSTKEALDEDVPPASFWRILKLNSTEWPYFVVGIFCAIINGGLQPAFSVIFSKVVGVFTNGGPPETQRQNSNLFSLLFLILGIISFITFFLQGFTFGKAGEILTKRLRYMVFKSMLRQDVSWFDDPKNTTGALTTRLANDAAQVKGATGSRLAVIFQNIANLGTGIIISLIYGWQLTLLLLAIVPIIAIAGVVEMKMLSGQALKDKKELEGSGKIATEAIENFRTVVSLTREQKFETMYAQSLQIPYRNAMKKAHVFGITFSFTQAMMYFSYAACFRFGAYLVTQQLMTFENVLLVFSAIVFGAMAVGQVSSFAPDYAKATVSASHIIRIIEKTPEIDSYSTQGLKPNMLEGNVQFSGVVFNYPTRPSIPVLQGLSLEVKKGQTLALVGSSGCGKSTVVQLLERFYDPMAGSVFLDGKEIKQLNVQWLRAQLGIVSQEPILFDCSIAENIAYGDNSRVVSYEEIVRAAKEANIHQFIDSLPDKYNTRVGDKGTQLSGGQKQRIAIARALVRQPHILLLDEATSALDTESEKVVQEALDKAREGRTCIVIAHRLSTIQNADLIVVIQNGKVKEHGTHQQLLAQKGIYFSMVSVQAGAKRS

## [C-]#[N+]CC(C)(C)OC.[C-]#[N+]CC(C)(C)OC.[C-]#[N+]CC(C)(C)OC.[C-]#[N+]CC(C)(C)OC.[C-]#[N+]CC(C)(C)OC.[C-]#[N+]CC(C)(C)OC.[Tc] [[^99mTc]Sestamibi]
Pgp [1]; FVB strain, without APPsw transgene
  increase in brain penetration in Pgp-null mice versus wild type: approximately 3.5 fold
Pgp [1]; Pgp-null mice (FVB)
  brain content of the tracer: 0.85±0.14 % ID/g
Pgp [1]; animals expressing the APPsw+/- transgene
  increase in brain penetration in Pgp-null animals compared with those expressing Pgp: 3.5 fold
Pgp [1]; wild type controls (FVB)
  brain content of the tracer: 0.22±0.02 % injected dose (ID)/gram (g)
Pgp [1]; wild type versus Pgp-null, five minutes post-injection
  blood content of the tracer, difference between the two strains: no difference

## COc1cc2c(cc1OC)CN(CCc1ccc(NC(=O)c3cc(OC)c(OC)cc3NC(=O)c3cnc4ccccc4c3)cc1)CC2 [XR9576]
Pgp [2]; eight hours after treatment
  increase of ISF Aβ levels compared to vehicle treated mice: ~30%
Pgp [2]; from eight hours after administration, hippocampus, 3 month old APPsw mice
  ISF exchangeable Aβ1-x (eAβ1-x) levels, % of control-treated (vehicle-treated) mice: 127.7±3.4%
LRP1
  levels of LRP1 in cerebral vessels: did not change
Pgp [1]; intravenous, 80 mg/kg, data not shown
  Pgp function at the BBB as determined with [99mTc]Sestamibi analysis: inhibits Pgp function at the BBB

## inulin [[^14C]inulin]
Pgp [3]
  brain recovery (retained): Approximately 85%
